Data: US8987275B2, “Indazole compounds and their uses” (Dana-Farber Cancer Institute, Inc., priority 2010, dated 2015)

How the values were obtained:
Format in all cases: cell-based
Tel-Alk = molecular target: T1, Tel-Alk (Homo sapiens, UniProt Q9UM73); assay: IC50 of compounds against kinase target Tel-Alk (Table I)
T1 construct: TEL (ETV6); N-terminal fusion partner; human ETV6 would be P41212; the other entry of the earlier key: ETV6 (P41212, Transcription factor ETV6)
Method: (§1) All compounds are initially dissolved in DMSO to make 10 mM stock solutions, and then are serially diluted to obtain final concentrations for in vitro experiments.
(§2) All cell lines are cultured with 5% CO2 at 37° C. in RPMI (Mediatech, Inc., Herndon, Va.) with 10% fetal calf serum (FCS) and supplemented with 1% L-glutamine. Parental Ba/F3 cells are similarly cultured with 15% WEHI-conditioned medium as a source of IL-3. Transfected cell lines are cultured in media supplemented with 1 mg/ml G418.

Bcr-Abl = molecular target: T2, Bcr-Abl (Homo sapiens, UniProt P00519); assay: IC50 of compounds against kinase target Bcr-Abl (Table I)
T2 construct: BCR (N-terminal fusion partner, p210 form, B2A2 junction); expressed in transfected cells; host or cells: Ba/F3.p210 (or 32D.p210) murine hematopoietic cells; the other entry of the earlier key: BCR (P11274, Breakpoint cluster region protein)
Method: as §1
(§3) Ba/F3.p210 cells are obtained by transfecting the IL-3-dependent marine hematopoietic Ba/F3 cell line with a pGD vector containing p210BCR-ABL (B2A2) cDNA (Daley and Baltimore, 1988; Sattler et al., 1996; Okuda et al., 1996). Murine hematopoietic 32D cells are transduced with retrovirus to express p210 Bcr-ABL (32D.p210 cells) (Matulonis et al., 1993); the 32D-T315I cell line is transfected by electroporation with the imatinib resistant BCR-ABL construct (pCI-neo Mammalian Expression Vector; Promega (#E1841) harboring the point mutation T315I (Weisberg et al., 2005). Ba/F3 cells are stably transfected by electroporation with imatinib-resistant BCR-ABL constructs (pCI-neo Mammalian Expression Vector; Promega (#E1841) harboring the point mutations T315I, F317L, F486S, and M351T; transfectants are selected for neomycin resistance and IL-3-independent growth (Weisberg et al., 2005). Ba/F3 cells are stably transfected by electroporation with BCR-ABL point mutants identified in a random mutagenesis screen for BCR-ABL point mutants conferring resistance to nilotinib: Q252H, E292K, Y253C, Y253H, E255K, and V289L (Ray et al., 2007). Ba/F3 cells are made to express Tel-PDGFRβ as described by Golub et al., 1994, and Carroll et al., 1996. Constructs of D842V-PDGFRα and V561D-PDGFRα cDNA cloned into pcDNA3.1 are stably transfected into Ba/F3 cells by electroporation, and cells are selected for neomycin resistance and IL3-independent growth as described by Weisberg et al., 2006.
as §2

BCR-Abl T315I = molecular target: T3, BCR-Abl T315I (Homo sapiens, UniProt P00519, T315I); assay: IC50 of compounds against kinase target T315I (Table I); conditions: read-out: IC50 T3151
T3 construct: BCR (N-terminal fusion partner of BCR-ABL); human BCR would be P11274; expressed in transfected cells; host or cells: Ba/F3 (or 32D) murine hematopoietic cells transfected with BCR-ABL T315I in pCI-neo; the other entry of the earlier key: BCR (P11274, Breakpoint cluster region protein)
Method: as §1, §3, §2

EML4-Alk = molecular target: T4, EML4-Alk (Homo sapiens, UniProt Q9UM73); assay: IC50 of compounds against kinase target EML4-Alk (Table I)
T4 construct: EML4 (N-terminal fusion partner); human EML4 would be Q9HC35; the other entry of the earlier key: EML4 (Q9HC35, Echinoderm microtubule-associated protein-like 4)
Method: as §1, §2

T4 sequence (Q9UM73 1058-1620 limits assumed): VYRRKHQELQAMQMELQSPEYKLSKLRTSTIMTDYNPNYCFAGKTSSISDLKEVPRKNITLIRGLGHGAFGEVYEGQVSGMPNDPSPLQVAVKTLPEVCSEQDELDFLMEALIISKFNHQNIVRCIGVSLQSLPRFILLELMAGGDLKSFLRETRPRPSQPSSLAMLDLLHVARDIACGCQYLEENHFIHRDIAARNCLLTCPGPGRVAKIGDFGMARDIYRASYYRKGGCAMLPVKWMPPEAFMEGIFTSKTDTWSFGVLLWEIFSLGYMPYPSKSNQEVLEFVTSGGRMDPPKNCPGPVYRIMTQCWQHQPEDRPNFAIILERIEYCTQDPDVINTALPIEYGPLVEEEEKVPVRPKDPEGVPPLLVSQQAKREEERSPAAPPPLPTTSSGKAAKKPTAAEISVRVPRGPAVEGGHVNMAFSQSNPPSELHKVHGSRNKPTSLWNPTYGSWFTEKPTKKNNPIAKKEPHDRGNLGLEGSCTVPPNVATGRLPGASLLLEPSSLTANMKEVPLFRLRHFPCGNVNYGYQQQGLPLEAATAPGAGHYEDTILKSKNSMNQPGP
T1 sequence (Q9UM73 1116-1392 limits assumed): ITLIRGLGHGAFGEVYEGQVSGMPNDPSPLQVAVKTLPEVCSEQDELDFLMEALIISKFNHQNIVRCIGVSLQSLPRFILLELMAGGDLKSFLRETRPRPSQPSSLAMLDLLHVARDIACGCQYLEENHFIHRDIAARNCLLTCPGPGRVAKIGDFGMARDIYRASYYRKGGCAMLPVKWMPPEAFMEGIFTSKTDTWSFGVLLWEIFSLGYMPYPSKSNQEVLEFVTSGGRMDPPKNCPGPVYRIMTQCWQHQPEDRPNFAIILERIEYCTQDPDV

IC50 (Tel-Alk) [nM]	IC50 (Bcr-Abl) [nM]	IC50 (BCR-Abl T315I) [nM]	IC50 (EML4-Alk) [nM]	Structure (SMILES)
> 10000	1570	3080	> 10000	CNc1n[nH]c2cc(-c3cccc(C(=O)Nc4cc(-n5cnc(C)c5)cc(C(F)(F)F)c4)c3)ccc12 [Compound 18]
> 10000	> 10000	> 10000	> 10000	O=C(Nc1n[nH]c2cc(-c3cccc(C(=O)N4CCC(N5CCCC5)CC4)c3)ccc12)C1CC1 [Compound 8]
> 10000	> 10000	> 10000	> 10000	CONC(=O)c1cccc(-c2ccc3c(NC(=O)C4CC4)n[nH]c3c2)c1 [Compound 11]
2900	3070	310	1340	Cc1cn(-c2cc(NC(=O)c3cccc(-c4ccc5c(NC(=O)C6CC6)n[nH]c5c4)c3)cc(C(F)(F)F)c2)cn1 [Compound 6]
> 10000	> 10000	> 10000	> 10000	O=C(NCCN1CCOCC1)c1cccc(-c2ccc3c(NC(=O)C4CC4)n[nH]c3c2)c1 [Compound 7]
5260	70	1560	4220	CCOC(=O)c1cccc(-c2ccc3c(NC(=O)c4ccc(N5CCN(C)CC5)cc4)n[nH]c3c2)c1 [Compound 27]
1290	1190	> 10000	8470	Cc1ccc(C(=O)Nc2cccc(C(F)(F)F)c2)cc1-c1ccc2c(NC(=O)C3CC3)n[nH]c2c1 [Compound 15]
7180	7180	> 10000	> 10000	Cc1ccc(C(=O)Nc2cccc(C(F)(F)F)c2)cc1Nc1ccc2c(NC(=O)C3CC3)n[nH]c2c1 [Compound 25, 3-(3-(cyclopropanecarboxamido)-1H-indazol-6-ylamino)-4-methyl-N-(3-(trifluoro-methyl)phenyl)benzamide]
> 10000	780	7120	> 10000	CCN1CCN(Cc2ccc(NC(=O)c3cccc(-c4ccc5c(N)n[nH]c5c4)c3)cc2C(F)(F)F)CC1 [Compound 17]
430	360	1270	500	O=C(Nc1cccc(-c2ccc3c(NC(=O)C4CC4)n[nH]c3c2)c1)C1CC1 [Compound 22]
> 10000	> 10000	> 10000	> 10000	CCN1CCN(Cc2ccc(NC(=O)c3cccc(-c4ccc5c(NC(=O)C6CC6)n[nH]c5c4)c3)cc2)CC1 [Compound 9]
270	90	310	400	CCN1CCN(Cc2ccc(C(=O)Nc3cccc(-c4ccc5c(N)n[nH]c5c4)c3)cc2C(F)(F)F)CC1 [Compound 20]
720	1900	2080	1050	CNC(=O)c1cccc(-c2ccc3c(NC(=O)C4CC4)n[nH]c3c2)c1 [Compound 12]
> 10000	1440	> 10000	> 10000	CN1CCN(c2ccc(C(=O)Nc3n[nH]c4cc(-c5cccc(C(=O)Nc6cccc(C(F)(F)F)c6)c5)ccc34)cc2)CC1 [Compound 28, 3-(3-(4-(4-methylpiperazin-1-yl)benzamido)-1H-indazol-6-yl)-N-(3-(trifluoromethyl)phenyl)benzamide]

The next lines start with the molecule.

Structure (SMILES)	IC50 (Tel-Alk) [nM]	IC50 (Bcr-Abl) [nM]	IC50 (BCR-Abl T315I) [nM]	IC50 (EML4-Alk) [nM]
O=C(NC1CC1)c1cccc(-c2ccc3c(NC(=O)C4CC4)n[nH]c3c2)c1 [Compound 10]	> 10000	> 10000	> 10000	> 10000
CCN1CCN(Cc2ccc(NC(=O)c3cccc(Nc4ccc5c(NC(=O)C6CC6)n[nH]c5c4)c3)cc2C(F)(F)F)CC1 [Compound 24]	3750	2380	3110	2530
O=C(Nc1cccc(C(F)(F)F)c1)c1cccc(-c2ccc3c(NC(=O)C4CC4)n[nH]c3c2)c1 [Compound 1]	> 10000	> 10000	–	> 10000
Cc1cn(-c2cc(NC(=O)c3ccc(C)c(-c4ccc5c(NC(=O)C6CC6)n[nH]c5c4)c3)cc(C(F)(F)F)c2)cn1 [Compound 16]	> 10000	220	> 10000	> 10000
CCN1CCN(Cc2ccc(C(=O)Nc3cccc(-c4ccc5c(NC(=O)C6CC6)n[nH]c5c4)c3)cc2C(F)(F)F)CC1 [Compound 23]	> 10000	> 10000	> 10000	> 10000
CCN1CCN(Cc2ccc(NC(=O)c3cccc(-c4ccc5c(NC(=O)c6ccccc6)n[nH]c5c4)c3)cc2C(F)(F)F)CC1 [Compound 3]	1070	470	–	1670
CCN1CCN(Cc2ccc(NC(=O)c3cccc(-c4ccc5c(NC)n[nH]c5c4)c3)cc2C(F)(F)F)CC1 [Compound 2, N-(4-((4-ethylpiperazin-1-yl)methyl)-3-(trifluoromethyl)phenyl)-3-(3-(methylamino)-1H-indazol-6-yl)benzamide]	4480	50	630	4190
CCN1CCN(Cc2ccc(NC(=O)c3cccc(-c4ccc5c(NC(=O)C6CC6)n[nH]c5c4)c3)cc2C(F)(F)F)CC1 [Compound 19]	30	650	340	60
COc1cc(Nc2ccc3c(NC(=O)C4CC4)n[nH]c3c2)cc(C(=O)Nc2ccc(CN3CCN(C)CC3)c(C(F)(F)F)c2)c1 [Compound 26]	7080	7080	–	> 10000
CCN1CCN(Cc2ccc(NC(=O)c3ccc(C)c(-c4ccc5c(NC(=O)C6CC6)n[nH]c5c4)c3)cc2C(F)(F)F)CC1 [Compound 13]	310	30	500	1060
CCN1CCN(Cc2ccc(NC(=O)c3ccc(C)c(-c4ccc5c(NC(=O)C6CC6)n[nH]c5c4)c3)cc2)CC1 [Compound 14]	1440	1050	> 10000	5600
CCN1CCN(Cc2ccc(NC(=O)Nc3cccc(-c4ccc5c(NC(=O)C6CC6)n[nH]c5c4)c3)cc2C(F)(F)F)CC1 [Compound 21]	320	530	240	360
